# According to patent US20120122991A1, “METHOD FOR TREATING CANCER BY INCREASING AMP-ACTIVATED KINASE ACTIVITY” (Dana-Farber Cancer Institute, Inc., priority 2003, published 2012):
# Experiments:
# quiescent cells = settings: cited from earlier work
# mTOR signaling = mTOR signaling (S6K1, 4E-BP1 phosphorylation) in transfected HeLa cells; assay type: cell-based, human; settings: HeLa cells with wild-type LKB1, 2 mM AICAR for 2 h
# Protocol: FIG. 6A: Subconfluent cycling littermate-matched primary MEFs of the indicated genotype were left untreated (NT) or were treated with 2 mM AICAR for 2 h. Total cell extracts were immunoblotted for phospho-Thr172 AMPK (P-AMPK), phospho Ser79 ACC (P-ACC), phospho-Thr389 S6K1 (P-S6K1), phospho-Ser9 GSK-3b (P-GSK-3), and phospho-Ser235/236 S6 ribosomal protein (P-S6). FIG. 6B: An immortalized LKB1−/− MEF cell line was reconstituted with vector (v), wild-type (wt) or kinase-dead (kd) human LKB1-expressing retroviruses. Cells were treated as in FIG. 6A. eIF4E was used as a loading control. *represents a cross-reactive band with the anti-LKB1 antisera as characterized previously (Shaw et al. (2004) Proc. Natl. Acad. Sci. USA 101, 3329-3335). FIG. 6C: Endogenous 5′ cap complexes were isolated from LKB1 primary MEFs as in A. 10% of the total cell lysate is shown in the left panels; cap complexes purified on 7-methyl sepharose are shown in right panels. Each were immunoblotted with total 4E-BP1 and eIF4E antibodies. eIF4E is shown as a loading control. FIG. 6D: Hela cells (which are LKB1-deficient) were transiently transfected with vector, FLAG-tagged wild-type, or kinase-dead LKB1 along with an HA-tagged S6K1 or an HA-tagged 4E-BP1 construct, then treated where indicated with 2 mM AICAR for 2 h. […]
structure (smiles),measurement,setting,value
"NC(=O)c1ncn([C@@H]2O[C@H](CO)[C@@H](O)[C@H]2O)c1N [AICAR, 5-aminoimidazole-4-carboxamide 1-β-D-ribofuranoside]",glucocorticoid induced apoptosis,quiescent cells,protects them from glucocorticoid induced apoptosis
same,S6K1 and 4E-BP1 phosphorylation,mTOR signaling,inhibition
